Measured values reported in patent US11680082B2, “Conjugates of montelukast and peptides” (ENLITISA (SHANGHAI) PHARMACEUTICAL CO., LTD, priority 2018, dated 2023).
Non-standard residues stand in square brackets, D forms with d. No end group written: not given here. Hyp = O=C(O)[C@@H]1C[C@@H](O)CN1

Experiments:
[1] = system: phenol red excretion in trachea; assay: Expectorant experiment, phenol red excretion method; assay type: in vivo, mice; conditions: Positive control, 0.15 g/kg intragastric, 5 days
Experimental: 50 Mice were randomly divided into 5 groups according to body weight: Normal saline, negative control group, ammonium chloride positive control group and high, medium and low dose of test drug (either Compound A, above, or Compound E, below). 10 mice in each group, 5 males and 5 females.
Compound A was administered via atomization inhalation (0.15 mL/min) for 1 min, once daily for 5 days and the positive control drug was administered by intragastric administration for 5 days.
Half an hour after the last administration of Compound A, 5% phenol red solution was injected into the abdominal cavity. The mice were sacrificed after a further half an hour. The skin of the neck was removed and the trachea from the thyroid cartilage to the bifurcation was separated, soaked it in 5% sodium bicarbonate solution with constant shaking. The sodium bicarbonate solution was used to detect the phenol red content.
The absorbance at 558 nm was detected by spectrophotometry (721G Spectrophotometer, Shanghai Jingke, Shanghai, China). The optical density value was used to calculate the phenol red content In the trachea by reference to the phenol red standard curve. The results of each group and the negative control group were tested for significant t-test.

[2] = system: diabetic skin wound; assay: Diabetic wound model I; assay type: in vivo, db/db mice (C57BL/KsJ-db/db); conditions: histology
Experimental: A similar experiment with essentially the same protocol to that described in Example 6 above was carried out on 8 to 12 week-old male db/db mice (C57BL/KsJ-db/db), with a body weight of 35-45 g/mouse (Changzhou Cvens Experimental Animal Co. Ltd.).
An EMS skin biopsy punch with a 18 mm diameter was used to make wounds.
Different drugs were administrated topically at 50 μL/wound, once daily from Day 0 to Day 12. The model group was given same amount of normal saline.
Photographs were taken for each wound every other day from Day 0. Photos were scanned into a computer, and wound areas calculated using ImageJ image analysis software (National Institute of Health, USA).
The unhealed wound area was expressed as a percentage of the original wound area: At/A0×100%, where A0 and At refer to the initial area at Day 0 and the wound area at the date of measurement (time t), respectively.
Histological specimens were analyzed and skin regeneration, fibroblast proliferation, collagen regeneration scores (Masson score) and inflammation scores were estimated as follows.
The HE and Masson stained slices were observed under an optical microscope and were scored (1, 2 or 3 points) according to the following criteria. […]

[3] = system: xylene induced ear swelling; assay: Mouse ear swelling model I (xylene); assay type: in vivo, BALB/c mice; conditions: xylene on right ear, topical treatment, 40 minutes; (right ear weight−left ear weight)/left ear weight
Experimental: The mice were randomly divided into 7 groups as described in Table 1 below, with 5 mice in each group
The left ear of each mouse was used as autologous control. 20 μL of xylene (Shanghai Aladdin Bio-Chem Technology Co., Ltd., Shanghai, China) was applied to the right ear of each mouse, both inside and outside. The ear started to swell in about 4 minutes. Then, 0.08 g of each study treatments or vehicles were applied to the right ears in each group. The mice were put back into their cages.
Vehicle-1 in Table 1 below is the cream base without active ingredients. Vehicle-2 in Table 1 below is the gel base without active ingredients.
The mice were sacrificed by cervical dislocation after 40 minutes. The left and right ears were cut off. A skin pouch (Electron Microscopy Sciences, Hatfield, Pa., USA) with a diameter of 8 mm was used to take a piece of the ear from the same site of both ears.

[4] = system: diabetic skin wound; assay: Diabetic wound model II; assay type: in vivo, db/db mice (C57BL/KsJ-db/db)
Experimental: A similar experiment with essentially the same protocol to that described in Example 7 above was carried out on 8 to 12 week-old male db/db mice (C57BL/KsJ-db/db) with a body weight of 35-45 g/mouse (Changzhou Cvens Experimental Animal Co. Ltd.).
Different concentrations of Compound A and Compound 1 (“A” and “1” respectively, as indicated in the Table 5 below) were prepared in substantially the same way as described in Examples 6 and 7 above.
Different drugs were administrated topically at 50 μL/wound, once daily from Day 0 to Day 12, as show in Table 5 below.
The model group was given same amount of normal saline. There were 8 mice in each group. 4 mice were in the control group. The skin pieces taken during wound creation were used as the samples at Day 7 for the control group.
Histological specimens were analyzed as described in Example 7 above, except that the collagen deposition score criterion for the Masson stained sample were as follows. A comparison was made with normal tissue. No clear blue staining was given 0 points; blue fiber appearing in a scattered pattern was scored as 1 points; if more blue fiber appeared, this was scored as 2 points, and a diffuse blue colour was given 3 points.

Cl.N [NH4Cl, ammonium chloride]
Phenol red concentration [1]: 10.335 ± 0.337 µg/mL

Ala-Lys-Pro-Ser-Tyr-Hyp-Hyp-Thr-Tyr-Lys (AKPSY[Hyp][Hyp]TYK; not fully specified; printed as Ala-Lys-Pro-Ser-Tyr-Hyp-Hyp-Thr-Tyr-Lys) [Compound 1]
Fibroblast proliferation score [2]: could promote
Skin regeneration score [2]: could promote the skin regeneration
Swelling rate [3]: 61.5%
ratio of remaining wound area of initial wound (Mean) ([4]; high dose (H), D1): 1.000
ratio of remaining wound area of initial wound (Mean) ([4]; high dose (H), D2): 1.051
ratio of remaining wound area of initial wound (Mean) ([4]; high dose (H), D4): 0.821
ratio of remaining wound area of initial wound (Mean) ([4]; high dose (H), D6): 0.718
ratio of remaining wound area of initial wound (Mean) ([4]; high dose (H), D8): 0.486
ratio of remaining wound area of initial wound (Mean) ([4]; high dose (H), D10): 0.478
ratio of remaining wound area of initial wound (Mean) ([4]; high dose (H), D12): 0.368
ratio of remaining wound area of initial wound (Mean) ([4]; low dose (L), D1): 1.000
ratio of remaining wound area of initial wound (Mean) ([4]; low dose (L), D2): 0.860
ratio of remaining wound area of initial wound (Mean) ([4]; low dose (L), D4): 0.753
ratio of remaining wound area of initial wound (Mean) ([4]; low dose (L), D6): 0.593
ratio of remaining wound area of initial wound (Mean) ([4]; low dose (L), D8): 0.467
ratio of remaining wound area of initial wound (Mean) ([4]; low dose (L), D10): 0.433
ratio of remaining wound area of initial wound (Mean) ([4]; low dose (L), D12): 0.306
wound healing ([4]; low dose, earlier stages after wound infliction): prompted wound healing in the earlier stages
ratio of remaining wound area of initial wound (Mean) ([4]; medium dose (M), D1): 1.000
ratio of remaining wound area of initial wound (Mean) ([4]; medium dose (M), D2): 0.991
ratio of remaining wound area of initial wound (Mean) ([4]; medium dose (M), D4): 0.895
ratio of remaining wound area of initial wound (Mean) ([4]; medium dose (M), D6): 0.786
ratio of remaining wound area of initial wound (Mean) ([4]; medium dose (M), D8): 0.552
ratio of remaining wound area of initial wound (Mean) ([4]; medium dose (M), D10): 0.490
ratio of remaining wound area of initial wound (Mean) ([4]; medium dose (M), D12): 0.344
